Laboratory results as given in PubChem BioAssay AID1845206 (Molecular Pharmacology Branch, DTP, NCI, 2023).

Tested on: NCI-H1618 multicellular tumor spheroid viability
Assay: Anticancer human tumor NCI-H1618 cell line growth inhibition;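 further: spheroids exposed to agents for 7 days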
Conditions: for IC50: curve of first compound; for viability, T/C: stronger effect = lower value
How it was run: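 Complex spheroids of malignant cells with endothelial cells and mesenchymal stem cells; agents alone or combined, from near clinical Cmax (or 10 microM if unknown) down in half-log steps, 0.25% DMSO final.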

[1] = second compound 0.003 µM, first compound 0.0316 µM
[2] = second compound 0.003 µM, first compound 0.1 µM
[3] = second compound 0.003 µM, first compound 0.316 µM
[4] = second compound 0.003 µM, first compound 1 µM
[5] = second compound 0.003 µM, first compound 3.16 µM
[6] = second compound 0.003 µM, first compound 10 µM
[7] = second compound 0.00949 µM, first compound 0.0316 µM
[8] = second compound 0.00949 µM, first compound 0.1 µM
[9] = second compound 0.00949 µM, first compound 0.316 µM
[10] = second compound 0.00949 µM, first compound 1 µM
[11] = second compound 0.00949 µM, first compound 3.16 µM
[12] = second compound 0.00949 µM, first compound 10 µM
[13] = second compound 0.03 µM, first compound 0.0316 µM
[14] = second compound 0.03 µM, first compound 0.1 µM
[15] = second compound 0.03 µM, first compound 0.316 µM
[16] = second compound 0.03 µM, first compound 1 µM
[17] = second compound 0.03 µM, first compound 3.16 µM
[18] = second compound 0.03 µM, first compound 10 µM
[19] = second compound 0.0949 µM, first compound 0.0316 µM
[20] = second compound 0.0949 µM, first compound 0.1 µM
[21] = second compound 0.0949 µM, first compound 0.316 µM
[22] = second compound 0.0949 µM, first compound 1 µM
[23] = second compound 0.0949 µM, first compound 3.16 µM
[24] = second compound 0.0949 µM, first compound 10 µM
[25] = second compound 0.3 µM, first compound 0.0316 µM
[26] = second compound 0.3 µM, first compound 0.1 µM
[27] = second compound 0.3 µM, first compound 0.316 µM
[28] = second compound 0.3 µM, first compound 1 µM
[29] = second compound 0.3 µM, first compound 3.16 µM
[30] = second compound 0.3 µM, first compound 10 µM

Compound	IC50 (second compound 0.003 µM)	IC50 (second compound 0.00949 µM)	IC50 (second compound 0.03 µM)	IC50 (second compound 0.0949 µM)	IC50 (second compound 0.3 µM)	viability, T/C [1]	viability, T/C [2]	viability, T/C [3]	viability, T/C [4]	viability, T/C [5]	viability, T/C [6]	viability, T/C [7]	viability, T/C [8]	viability, T/C [9]	viability, T/C [10]	viability, T/C [11]	viability, T/C [12]	viability, T/C [13]	viability, T/C [14]	viability, T/C [15]	other results
CC1COCCN1c1cc(-c2ccnn2C)c2ccnc(-c3ccn[nH]3)c2n1 (stereo not given) + CC[C@@]1(O)C(=O)OCc2c1cc1n(c2=O)Cc2cc3c(CN(C)C)c(O)ccc3nc2-1	< 31.6 nM	< 31.6 nM	< 31.6 nM	< 31.6 nM	< 31.6 nM	29.3%	15.1%	7%	2.06%	2.27%	0.99%	7.33%	4.63%	4.22%	2.35%	2.23%	1.12%	2.57%	3.94%	3.52%	viability, T/C [16]: 1.99%; viability, T/C [17]: 1.19%; viability, T/C [18]: 0.71%; viability, T/C [19]: 3.01%; viability, T/C [20]: 2.44%; viability, T/C [21]: 5%; viability, T/C [22]: 2.35%; viability, T/C [23]: 2.1%; viability, T/C [24]: 0.81%; viability, T/C [25]: 1.79%; viability, T/C [26]: 1.4%; viability, T/C [27]: 1.52%; viability, T/C [28]: 1.45%; viability, T/C [29]: 0.77%; viability, T/C [30]: 0.65%
COc1cc(C)[nH]c(=O)c1CN1CCc2c(Cl)cc(C(OC)C3COC3)c(Cl)c2C1=O (stereo not given) + CC[C@@]1(O)C(=O)OCc2c1cc1n(c2=O)Cc2cc3c(CN(C)C)c(O)ccc3nc2-1	> 10000 nM	< 31.6 nM	< 31.6 nM	< 31.6 nM	< 31.6 nM	54.1%	52.3%	78.8%	63.3%	83.5%	53.2%	39.5%	10.9%	17.2%	40.1%	38.8%	29.1%	6.67%	5.82%	8.79%	viability, T/C [16]: 4.86%; viability, T/C [17]: 5.97%; viability, T/C [18]: 7.23%; viability, T/C [19]: 6.1%; viability, T/C [20]: 2.42%; viability, T/C [21]: 2.48%; viability, T/C [22]: 6.01%; viability, T/C [23]: 4.18%; viability, T/C [24]: 6.78%; viability, T/C [25]: 2.05%; viability, T/C [26]: 2.31%; viability, T/C [27]: 2%; viability, T/C [28]: 1.4%; viability, T/C [29]: 3.18%; viability, T/C [30]: 2.92%
COc1ccc([C@@H](O)c2cc(-c3ncnc4cc(N5CCOCC5)ccc34)c(F)cc2Cl)nn1 + CC[C@@]1(O)C(=O)OCc2c1cc1n(c2=O)Cc2cc3c(CN(C)C)c(O)ccc3nc2-1	2580 nM	< 31.6 nM	< 31.6 nM	< 31.6 nM	< 31.6 nM	98.9%	71.7%	95.3%	77%	44.2%	14.9%	42.3%	27.2%	54%	48.5%	36%	11.8%	2.44%	3.37%	3.22%	viability, T/C [16]: 2.13%; viability, T/C [17]: 2.99%; viability, T/C [18]: 0.99%; viability, T/C [19]: 4.05%; viability, T/C [20]: 2.6%; viability, T/C [21]: 6.24%; viability, T/C [22]: 2.56%; viability, T/C [23]: 1.11%; viability, T/C [24]: 1.58%; viability, T/C [25]: 2.38%; viability, T/C [26]: 2.02%; viability, T/C [27]: 2.24%; viability, T/C [28]: 2.64%; viability, T/C [29]: 1.97%; viability, T/C [30]: 0.5%
Cc1cc(C)c(CNC(=O)c2cc(-c3ccc(CN4CCOCC4)cc3)cc3c2cnn3C2CCCC2)c(=O)[nH]1 + CC[C@@]1(O)C(=O)OCc2c1cc1n(c2=O)Cc2cc3c(CN(C)C)c(O)ccc3nc2-1	> 10000 nM	< 31.6 nM	< 31.6 nM	< 31.6 nM	< 31.6 nM	90.8%	94.2%	94.5%	88.5%	83.1%	76.2%	58.5%	38.5%	51%	27.2%	17.3%	12.7%	1.8%	1.58%	1.81%	viability, T/C [16]: 1.82%; viability, T/C [17]: 1.84%; viability, T/C [18]: 18.6%; viability, T/C [19]: 1.32%; viability, T/C [20]: 1.44%; viability, T/C [21]: 1.43%; viability, T/C [22]: 2.27%; viability, T/C [23]: 1.46%; viability, T/C [24]: 2.04%; viability, T/C [25]: 19.2%; viability, T/C [26]: 1.25%; viability, T/C [27]: 1.16%; viability, T/C [28]: 1.34%; viability, T/C [29]: 1.57%; viability, T/C [30]: 19.7%
[2H]c1nc(C)nc([2H])c1-c1cc(NC[C@@H](C)c2cccc3c(C(=O)NC)ccnc23)ncn1 + CC[C@@]1(O)C(=O)OCc2c1cc1n(c2=O)Cc2cc3c(CN(C)C)c(O)ccc3nc2-1	< 31.6 nM	< 31.6 nM	< 31.6 nM	< 31.6 nM	< 31.6 nM	43.8%	7.02%	138%	158%	108%	57.3%	23%	4.37%	42.7%	109%	70.8%	29.9%	12%	7.3%	15.2%	viability, T/C [16]: 21.4%; viability, T/C [17]: 22%; viability, T/C [18]: 26.6%; viability, T/C [19]: 11.4%; viability, T/C [20]: 10.8%; viability, T/C [21]: 3.24%; viability, T/C [22]: 24.5%; viability, T/C [23]: 22.6%; viability, T/C [24]: 21.6%; viability, T/C [25]: 9.96%; viability, T/C [26]: 5.33%; viability, T/C [27]: 2.69%; viability, T/C [28]: 14.1%; viability, T/C [29]: 16.1%; viability, T/C [30]: 4.13%
